In brackets after ≈: the same amount, converted by molar mass. Like-named read-outs stand apart in the source and are kept apart here.
Columns and labels:
[1] = test system: murine M109 solid tumour; experiment: In vivo efficacy vs subcutaneous M109 solid tumour
[2] = test system: murine B16F10 melanoma ascites tumour; experiment: In vivo efficacy vs i.p. B16F10 melanoma ascites tumour; settings: for %ILS (group mean increase in lifespan) / MST (mean survival time ± s.d.) / Per cent toxicity (mice with premature death) / Per cent cures (mice alive 60 days after inoculation): q.d., i.p., days 1-5 after inoculation, BDF1 mice
[3] = mouse, in vivo, ip, 20 mg/kg
[4] = test system: HT-29; experiment: In vitro tumour cell cytotoxicity, colorimetric MTT assay, 72 h; type: cell-based, human; settings: Homo sapiens, 72 h exposure, read-out: IC50
[5] = test system: B16F10; experiment: as above; type: cell-based, murine; settings: Mus musculus, B16-F10, 72 h exposure, read-out: IC50
[6] = test system: breast tumour; parameters: method as in Holmes et al., 1991; settings: breast tumour patients who had failed one previous course of chemotherapy; ref Holmes et al., 1991; cited from earlier work
[7] = test system: P388; experiment: In vitro tumour cell cytotoxicity, colorimetric MTT assay, 72 h; type: cell-based, murine; settings: Mus musculus, 72 h exposure, read-out: IC50
[8] = in vivo; settings: male, CD-1, mouse, ip, 20 mg/kg
[9] = test system: human MX-1 xenograft solid tumour; settings: for Delay (1.0 g) (footnote: delay to reach mean tumour mass = 0.5 g, compared with untreated) / Per cent cures (mice with no palpable tumours, day 60) / Per cent toxicity / TWI (per cent tumour weight inhibition when untreated control mean = 0.5 g): q.d., i.p., days 1-5 after inoculation, s.c. xenograft
[10] = test system: ovarian tumours; parameters: method as in McGuire et al., 1989; settings: ovarian tumours that had failed cisplatinum therapy; ref McGuire et al., 1989; cited from earlier work
[11] = test system: BDF mice bearing B16F10 ascites tumours; settings: maximum dose yielding <20% lethality following five i.p. doses once daily
[12] = test system: A549; experiment: In vitro tumour cell cytotoxicity, colorimetric MTT assay, 72 h; type: cell-based, human; settings: Homo sapiens, 72 h exposure, read-out: IC50
[13] = dose 6.25 mg kg-1 per day, q.d., i.p., days 1, 5, 9 after inoculation, s.c. tumour, BDF1 mice
[14] = dose 12.5 mg kg-1 per day, q.d., i.p., days 1, 5, 9 after inoculation, s.c. tumour, BDF1 mice
[15] = dose 25 mg kg-1 per day, q.d., i.p., days 1, 5, 9 after inoculation, s.c. tumour, BDF1 mice
[16] = at non-toxic doses, i.p. once daily for 5 consecutive days
[17] = dose 6.25 mg kg-1 per day, nude mice
[18] = dose 12.5 mg kg-1 per day, nude mice
[19] = dose 25 mg kg-1 per day, nude mice
[20] = once daily on days 1-5 after inoculation

CC(=O)O[C@H]1C(=O)[C@@]2(C)[C@H]([C@H](OC(=O)c3ccccc3)[C@]3(O)C[C@H](OC(=O)[C@H](O)[C@@H](NC(=O)c4ccccc4)c4ccccc4)C(C)=C1C3(C)C)[C@]1(OC(C)=O)CO[C@@H]1C[C@@H]2O [Paclitaxel, reference compound]
Tumour weight inhibition (TWI) when untreated mice had a mean tumour mass of 1 g [1]: 47%
Delay (1.0 g): delay to reach mean tumour mass = 1.0 g, compared with untreated [1, 13]: 0.4 days
Per cent cures (mice with no palpable tumours, day 60) [1, 13]: 0%
Per cent toxicity [1, 13]: 0%
TWI (per cent tumour weight inhibition when untreated control mean = 1.0 g) [1, 13]: 22%
Days (1.0 g): days to reach mean tumour mass = 1.0 g ± s.d. [1, 14]: 12.6+ 1.0 days
Delay (1.0 g): delay to reach mean tumour mass = 1.0 g, compared with untreated [1, 14]: 0.6 days
Per cent cures (mice with no palpable tumours, day 60) [1, 14]: 0%
Per cent toxicity [1, 14]: 0%
TWI (per cent tumour weight inhibition when untreated control mean = 1.0 g) [1, 14]: 40%
Delay (1.0 g): delay to reach mean tumour mass = 1.0 g, compared with untreated [1, 15]: 0.9 days
Per cent cures (mice with no palpable tumours, day 60) [1, 15]: 0%
Per cent toxicity [1, 15]: 30%
TWI (per cent tumour weight inhibition when untreated control mean = 1.0 g) [1, 15]: 47%
Delay in solid tumour growth to 1 g ([1]; paclitaxel at a non-toxic dose): 0.6 days
Cure rate at optimal non-toxic dose [2, 16]: 0%
Optimal increase in life span (ILS) [2, 16]: 96%
%ILS (group mean increase in lifespan) ([2]; dose 6.25 mg kg-1 per day): 34%
MST (mean survival time ± s.d.) ([2]; dose 6.25 mg kg-1 per day): 26.4 ± 3.4 days
Per cent toxicity (mice with premature death) ([2]; dose 6.25 mg kg-1 per day): 0%
%ILS (group mean increase in lifespan) ([2]; dose 12.5 mg kg-1 per day): 34%
Per cent cures (mice alive 60 days after inoculation) ([2]; dose 12.5 mg kg-1 per day): 0%
Per cent toxicity (mice with premature death) ([2]; dose 12.5 mg kg-1 per day): 0%
%ILS (group mean increase in lifespan) ([2]; dose 25 mg kg-1 per day): 96%
MST (mean survival time ± s.d.) ([2]; dose 25 mg kg-1 per day): 38.6 ± 4.8 days
Per cent cures (mice alive 60 days after inoculation) ([2]; dose 25 mg kg-1 per day): 0%
Per cent toxicity (mice with premature death) ([2]; dose 25 mg kg-1 per day): 0%
Optimal dose ([2]; i.p. once daily for 5 consecutive days): 25 mg/kg/day
AUC [3]: 42.53 ig per h ml-1
AUC value (rounded) [3]: 43 jg h-1 ml-1
Cmax [3]: 14.13 ig ml-1
Cmax (rounded) [3]: 14 jg ml-1
IC50 [4]: 2.7 ng/mL (≈ 3.16 nM)
IC50 [5]: 4.9 ng/mL (≈ 5.74 nM)
Response rate [6]: 48%
IC50 [7]: 9.9 ng/mL (≈ 11.6 nM)
Tmax [8]: 1.5 h
half-life [8]: 2.9 h
Optimal dose ([9]; administered on days 1-5 after inoculation, nude mice): 12.5 mg kg-1 per dose
Tumour weight inhibition (TWI) when untreated mice had a mean tumour mass of 0.5 g ([9]; analogues optimally, paclitaxel at non-toxic doses): 80%
Delay (1.0 g) (footnote: delay to reach mean tumour mass = 0.5 g, compared with untreated) [9, 17]: 1.4 days
Per cent cures (mice with no palpable tumours, day 60) [9, 17]: 0%
Per cent toxicity [9, 17]: 0%
TWI (per cent tumour weight inhibition when untreated control mean = 0.5 g) [9, 17]: 42%
Delay (1.0 g) (footnote: delay to reach mean tumour mass = 0.5 g, compared with untreated) [9, 18]: 13.4 days
Per cent cures (mice with no palpable tumours, day 60) [9, 18]: 10%
Per cent toxicity [9, 18]: 0%
TWI (per cent tumour weight inhibition when untreated control mean = 0.5 g) [9, 18]: 80%
Delay (1.0 g) (footnote: delay to reach mean tumour mass = 0.5 g, compared with untreated) [9, 19]: 19.1 days
Per cent cures (mice with no palpable tumours, day 60) [9, 19]: 30%
Per cent toxicity [9, 19]: 40%
TWI (per cent tumour weight inhibition when untreated control mean = 0.5 g) [9, 19]: 100%
Cure rate [9, 20]: 10%
Delay in tumour growth compared with untreated controls [9, 20]: 13.4 days
Response rate [10]: 30%
MTD (q.d. days 1-5) [11]: 25 mg kg-1 per day
IC50 [12]: 3.4 ng/mL (≈ 3.98 nM)
